The results in this text go back to patent US20260207795A1, “SMALL MOLECULE TRACERS BINDING TO ALPHA-SYNUCLEIN AGGREGATES AND THEIR USES” (Fudan University, priority 2021, published 2026).

Bounds are passed on as bounds.

The Kd is the concentration at which binding is half-saturated. Higher therefore signals weaker binding.

For data set [1], the target named is T1, human α-synuclein aggregates (Homo sapiens, UniProt P37840).
T1 construct: made in house; host or cells: E. coli BL21 (DE3)
The experiment in a line: Binding affinity of the compounds to α-synuclein aggregates (fluorescence method). Particulars: fluorescence saturation binding; α-synuclein aggregates (PFFs) 3 μM; room temperature, 1 hour. As for the experimental part:
α-synuclein monomers were prepared into a buffer solution containing 1×PBS, where the final protein concentration was 100 μM ([…]), and incubated in a 1000 rpm shaker at 37° C. for 7 days to obtain α-synuclein aggregates. The initial and final concentrations of the monomer protein were determined by the BCA method.
The prepared α-synuclein aggregates, also known as preformed fibrils (PFFs), are used for protein affinity testing, construction of cell model, and testing of the invention.
10 mM mother solution of DMSO was prepared from 1 mg of the compound, then diluted to 20 μM with PBS, and made gradient dilution 7 times (3× each dilution); 30 μL of test compound was added to the 384-well plate, following the experimental group was added to 30 μL α-synuclein aggregates (3 μM), and the control group was added to the same amount of PBS. After the 384-well plate was incubated shaking at 50 rpm at room temperature for 1 hour, the plate was taken out to detect the maximum absorption and emission wavelengths of the compound with an ELISA Microplate Reader, and the fluorescence values were detected at these wavelengths, too. The fluorescence changes in different concentrations of compounds were calculated using the experimental group data minus the control group data, and the protein-binding affinity of compounds was obtained using the Saturation binding module of GraphPad Prism.
The binding affinity of the Formula I compound to α-synuclein aggregates is determined by the above method, and the dissociation equilibrium constant Kd is shown in Table 1.

For data set [2], the target named is T2, α-synuclein aggregates in SH-SY5Y cells (Homo sapiens, UniProt P37840).
T2 construct: made in house; host or cells: E. coli BL21 (DE3)
In words: Immunofluorescence imaging of SH-SY5Y cell model with α-synuclein aggregates (PFFs). Format: cell-based. Particulars: co-staining with α-synuclein antibody, compound 1 h at room temperature. As to the method: SH-SY5Y cells belong to the SK—N—SH cell line and are a kind of human neuroblastoma cells. These cells can express a variety of important proteins of neurons, such as dopaminergic transporters, dopamine hydroxylase, and tyrosine hydroxylase, so they are often used in the study of the mechanism and pharmacodynamic evaluation of Parkinson's disease. The prepared α-synuclein aggregates (PFFs) are co-incubated with SH-SY5Y cells and endocytosed into cells after 12 hours through endocytosis. The cells were further incubated with α-synuclein antibodies and compounds successively, and observed by microscope after washing with PBS. The detailed operations are as follows.
SH-SY5Y cells were cultured in a high-glucose DMEM medium (containing 10% Gibco fetal bovine serum). After 5 times of resuscitation and passage, the cell state tended to be stable. Then PFFs was added to the medium and fluorescent staining was performed after 48 h. After sucked the cell culture solution and cleaned with PBS three times, 0.3% Triton X-100 was added and incubated for 10 min. After washing with PBS, 10% goat serum was added and closed for 1 h; After cleaning with PBS, primary antibody (1:1000, 610786, BD Biosciences) was added and incubated at 4° C. overnight. After cleaning with PBS, secondary antibodies (1:1000, goat-anti-rabbit Alex Fluor 594, and goat-anti-mouse Alex Fluor 488, Invitrogen) were added and incubated at room temperature for 2 h. Finally, the compound of the invention is added and incubated at room temperature for 1 h. After cleaning with PBS, the tablet is sealed and photographed by a laser confocal microscope.

The target in data set [3] is T3, Lewy bodies and Lewy neurites (α-synuclein lesions) (Homo sapiens, UniProt P37840).
T3 construct: from tissue; host or cells: human DLB patient amygdala, fresh frozen sections
The experiment in a line: Fluorescence staining of brain slices from patients of dementia with Lewy body (DLB). As for the experimental part: Brain slices from patients of dementia with Lewy bodies were taken from the amygdala of a deceased person in stage 2 of dementia with Lewy bodies. Frozen sections of the amygdala with rich α-synuclein were performed with a thickness of 20 μm.
(§1) Compound I-15 was diluted to 30 μM with PBS solution containing 50% EtOH, following incubated with the fresh frozen brain sections at room temperature for 30 minutes, then washed with 50% ethanol solution for 5 minutes and ultra-pure water twice for 3 minutes each time in sequence. After the sections were buried with an embedding agent (VECTASHIELD H-1000, Vector Laboratories), images of the lesion accumulation area on the sections were obtained by fluorescence microscopy. Analysis software (Image J) was used to quantify the fluorescence radiance of both the lesion area and the area of the non-forming lesion (background) to evaluate binding selectivity.

The test system of data set [4] is Aβ plaques and Tau neurofibrillary tangles. The experiment in a line: Fluorescence staining of brain slices from patients with Alzheimer's disease (AD). Further details: species or system human. Particulars: AD patient superior temporal gyrus sections, compound 30 μM. As to the method: as §1
The dewaxed brain tissue was fixed in a 10% neutral buffer of formalin solution, embedded with paraffin, and then sliced with a thickness of 6 μm. The staining method is the same as the above method for DLB patients.

A short description of data set [5]: Blood-brain barrier permeability test in rat. It counts as in vivo. Particulars: brain homogenate / blood supernatant after centrifugation, intravenous, SD rats, 5 mg/kg tail vein, 20 min after administration, LC-MS/MS, >0.3 indicates good blood-brain barrier penetration, read-out: brain/blood ratio. As to the method: The compound of the invention is injected into a rat tail vein to determine the blood-brain barrier permeability in vivo according to the following method.
Dissolve the tested compound in DMSO, and add castor oil and PBS for dilution (DMSO:castor oil:PBS=1:1:8). SD rats were weighed and given 5 mg/kg in the tail vein. 500 μL of blood was taken 20 min after administration after anesthetized with isoflurane. Cardiac perfusion was performed with 200 mL PBS and stopped until the organ faded, following brain tissue was got out and washed with PBS.
After centrifuging the extracted blood at 9000 rpm for 5 min, 200 μL supernatant was taken, and added 800 μL methanol. After centrifuging at 14000 rpm for 10 min, the supernatant was taken and filtered through a 0.22 μm filter membrane and stored at −80° C. for use. 2 mL PBS and 2 mL methanol were added to about 0.5 g of brain tissue to make a tissue homogenization, and then 1 mL homogenate was taken out and centrifuged at 14,000 rpm for 10 min after 2 mL methanol was added, 1 mL supernatant was taken through 0.22 μm filter membrane and stored at −80° C. for use. The concentration of compounds in the above supernatant of blood and brain homogenate were checked by LC-MS/MS, respectively.
A brain/blood ratio of <0.1, 0.1-0.3, or >0.3 indicates blood-brain barrier penetration of weak, moderate, or good, respectively. […] Since all the compounds of the invention have similar structures and their clogP values are mostly between 1.0 and 3.0, it can be predicted that other compounds of the invention should also have acceptable blood-brain barrier permeability.

The compound `CN(C)c1ncc(/C=C/c2nc3cc(OCCF)ccc3n(Cc3ccccn3)c2=O)s1` [I-15] yielded an equilibrium dissociation constant (Kd) in data set [1] of 0.1 to 0.2 µM. Also, the “binding to α-synuclein aggregates in SH-SY5Y cells (immunofluorescence, FIG. 1)” value (from here on “binding to α-synuclein aggregates”) in data set [2] is “excellent binding affinity and specificity”. In addition, the “binding affinity to α-synuclein lesions (staining of Lewy bodies and Lewy neurites, FIG. 2)” value in data set [3] (DLB patient amygdala frozen sections, compound 30 μM, 30 minutes) is given as “strong binding affinity”. In addition, the “binding to α-synuclein pathological tissue compared with Aβ and Tau pathological tissue (selectivity)” value in data set [3] (DLB versus AD brain slices, FIG. 2 and FIG. 3) is on record as “significantly stronger”. For the same compound, in data set [4], the “binding affinity to Aβ and Tau histology (FIG. 3)” value is reported as “very weak”; the “binding to Tau neurofibrillary filaments (FIG. 3)” value was “did not bind”. In data set [5], the Kp at 20 min is no less than 1.
Regarding `CN(C)c1ccc(/C=C/c2nc3cc(OCCF)ccc3n(Cc3ccncc3)c2=O)cc1` [I-12], the Kd in data set [1] fell in the range of 0.2 to 0.5 µM. The “binding to α-synuclein aggregates” value in data set [2] is “excellent binding affinity and specificity”. The Kp at 20 min in data set [5] was no less than 1.
For the compound `CN(C)c1ccc(/C=C/c2nc3cc(F)ccc3n(Cc3ccccn3)c2=O)cc1` [I-1], in data set [1], the Kd was 0.1 to 0.2 µM.
On to `CN(C)c1ccc(/C=C/c2nc3cc(F)ccc3n(Cc3ccncc3)c2=O)cc1` [I-3], for which the Kd in data set [1] fell in the range of 0.5 to 1 µM.
In turn, `CN(C)c1ccc(/C=C/c2nc3cc(OCCF)ccc3n(Cc3cccnc3)c2=O)cc1` [I-9] showed a Kd in data set [1] of 0.5 to 1 µM.
Take `CN(C)c1ccc(/C=C/c2nc3cc(OCCF)ccc3n(Cc3ccccn3)c2=O)cc1` [I-6]: in data set [1], the Kd was 0.2 to 0.5 µM. The “binding to α-synuclein aggregates” value in data set [2] was “excellent binding affinity and specificity”. In addition, in data set [5], the Kp at 20 min was no less than 1.
In data set [1], `CN(C)c1ccc(/C=C/c2nc3cc(F)ccc3n(Cc3cccnc3)c2=O)cc1` [I-2] had a Kd of 0.5 to 1 µM.
